Measurements published in patent US12600729B2, “New-type benzazepine fused ring derivative” (SHANGHAI JEYOU PHARMACEUTICAL CO., LTD., priority 2021, dated 2026).
Where two headings read alike, the source gives them in different places.

Assays:
[1] = biological target: T1, human vasopressin receptor V2R (Homo sapiens, UniProt P30518); experiment: Inhibition of vasopressin-induced activation of V2R (cAMP HTRF in HeLa-V2R cells); format: cell-based; conditions: AVP 2.25 nM, read-out: IC50, inhibition of cAMP increase in human cervical cancer cells (Human V2R Hela-Stable cell line OE2)
T1 construct: host or cells: HeLa (lentivirus infection, puromycin selection)
Experimental: HeLa-V2R cells were incubated with DMEM medium supplemented with 10% fetal bovine serum under the condition of 37° C. and 5% CO2, and the medium was added with 2 μg/mL puromycin to continuously screen cells expressing V2R. On the day of the experiment, the cells were digested with trypsin, washed twice with the stimulation buffer in the cAMP-GS HIRANGE kit, resuspended, and counted to prepare 1.6×10^6 cells/mL, and IBMX was added until a final concentration of 0.5 mM. 5 μL of cell suspension/well was transferred to a 384-well plate. To the corresponding wells were added 2.5 μL of various concentrations of the test compounds (3-fold dilution from 10 μM, 10 concentration gradients) or DMSO (minimum value Min, maximum value Max as a control), respectively. […]. At the same time, cAMP standard samples (3-fold dilution from 5.6 μM, 10 concentration points) were prepared, and 10 μL of cAMP standard samples were transferred to corresponding wells of a 384-well plate. The cAMP-d2 fluorescence and anti-cAMP antibody probes provided in the kit were 20-fold diluted by the lysis buffer in the cAMP-GS HIRANGE kit. To each well of a 384-well plate was sequentially added 5 μL of each diluted reagent. The above mixture in each well was mixed well, centrifuged briefly, incubated at 25° C. for 2 hours, and tested. The sample was tested by the HTRF method with the Envision microplate reader to determine the fluorescence intensity at 615 nm and 665 nm. Each test sample was tested in duplicate, with 32 replicates for both Min and Max, respectively.
The fluorescence intensity ratio FI665/615 at the wavelength of 665 nm and 615 nm of the samples in each well was calculated. The logarithm of the concentration of the standard was taken as X, and FI665/615×1000 as the Y value, and the standard curve was obtained by fitting the “log(inhibitor) vs response-variable slope (four parameters)” model in Prism 8.0 software. FI665/615×1000 of the test well was taken as the Y value, and the cAMP concentration corresponding to each sample was calculated in the Prism 8.0 software according to the above standard curve.
% Inhibition (inhibition percentage) calculation formula is as follows: % inhibition=(Cmax−Ccmpd)/(Cmax−Cmin)×100
wherein Cmax is the average calculated value of cAMP concentration in all maximum wells; Cmin is the average calculated value of cAMP concentration in all minimum wells; Ccmpd is the calculated value of cAMP concentration of the test compound.
% Inhibition (inhibition percentage) was taken as the Y value, and the logarithmic value of the compound concentration was taken as the X value, and the IC50 was calculated by nonlinear regression with “log(inhibitor) vs response-variable slope (four parameters)” model in Prism 8.0 software, wherein Y=Bottom+(Top−Bottom)/(1+10^((Log IC50−X)×Hill Slope)).

[2] = In vivo pharmacokinetics in mice, oral administration; conditions: male CD1 mice, oral 10 mg/kg; for AUC(0-inf) / Cmax / half-life: mouse, plasma
Experimental: In this experimental example, in vivo pharmacokinetic evaluations were performed on mice by intravenous injection and oral administration.
Experimental methods and conditions: Male CD1 mice, 6 to 8 weeks old with free access to food and water, were administered by oral gavage with a dosage of 10 mg/kg (solvent 5% DMSO/10% Solutol/85% Saline). 15 minutes, 30 minutes, 1 hour, 2 hours, 4 hours, 8 hours, 10 hours, 24 hours after administration, blood samples were collected. Each sample was collected in a volume of 150 μL and anticoagulated with heparin sodium, placed on ice after collection, and centrifuged within 1 hour to separate the test plasma. The plasma concentration in plasma was tested by liquid chromatography-tandem mass spectrometry (LC/MS/MS), and pharmacokinetic parameters were calculated using Phoenix WinNonlin software via the measured concentration.

LLC-PK1 cells = experiment: AVP-induced LLC-PK1 cell proliferation assay; format: cell-based, Porcine; design: Proliferation inhibition grading, Repeated experiment I / Proliferation inhibition grading, Repeated experiment II: key to the marks not given beside the values; conditions: for Proliferation inhibition grading, Repeated experiment I / Proliferation inhibition grading, Repeated experiment II: LLC-PK1, AVP 10 nM, verapamil 5 μM, graded against Tolvaptan; for hook effect in AVP-induced LLC-PK1 cell proliferation: high concentration, up to 3 μM
Experimental: Porcine renal epithelial cell LLC-PK1: purchased from ATCC, Cat #CL-101 The pathogenesis of polycystic kidney disease is related to the low intracellular calcium ion concentration of renal collecting duct epithelial cells and the cAMP-dependent excessive proliferation of cells. […] LLC-PK1 cells were incubated with M199 medium supplemented with 10% fetal bovine serum under the condition of 37° C. and 5% CO2. On the first day of the experiment, a 96-well plate was coated with 0.01% Poly-D-lysine, then each well of the plate was added with 100 μL of the above mixture. After standing at room temperature for 10 minutes, the mixture in each well was aspirated and air-dried at room temperature for 1 hour, and washed once with 200 μL 1×PBS for further use. LLC-PK1 cells were digested with trypsin, resuspended with serum-free M199 after centrifugation, counted, diluted into 1×10^5/mL cell suspension with serum-free M199 medium, and added with FBS until 1% final concentration. To a 96-well plate was transfered 200 μL of cell suspension/well. After the cells were incubated for 24 hours, the supernatant of the formulated solution was aspirated, and the cells were washed once with 200 μL of PBS. Then 160 μL of M199 medium containing 0.05% FBS and 20 μL of 10×Verapamil (final concentration of 5 μM) were sequentially added thereto, and the culture was continued for 24 hours. To the corresponding wells was respectively added 10 μL of various concentrations of the test compound (final concentration starting from 3 μM, 3-fold dilution, 8 concentration gradients) or DMSO (Min, and Max as a control) on the third day. […] On the fifth day, the culture medium was carefully aspirated. The cells were washed once with 200 μL of PBS. 90 μL of M199 serum-free medium was carefully added thereto, and then 10 μL of Alamarblue reagent was added thereto. The mixture was centrifuged at 300 rpm for 1 minute, incubated at 37° C. for 2 hours, and then tested. SpectraMax instrument was used for the sample test. The excitation light was 560 nm, and the emission light was 595 nm. Each test sample was tested in triplicate, with 6 replicates for both Min and Max, respectively. The concentration of the compound was taken as the X value, and the average value of the fluorescence intensity of each experimental well sample minus the fluorescence intensity of the background well was taken as the Y value, which represented the number of living cells in the well at the time of testing. The Grouped-Summary data-Separated bar graph in GraphPad Prism 8.0 software was used to make a bar chart for reflecting the dose-effect relationship of different compounds on AVP-induced cell proliferation. […] Data quality control: […]

human V1aR = biological target: T2, human V1aR (Homo sapiens, UniProt P37288); experiment: Competitive isotope ligand binding, V1a receptor
T2 construct: expressed in transfected cells; membranes prepared in house
Experimental: (§1) The cells with high expression of human V1a receptor were amplified, collected, washed twice with PBS, resuspended with PBS containing a protease inhibitor, homogenized with a homogenizer at 15000 r/min to break the cells, and centrifuged at 4° C. and 3000 r/min for 15 minutes. The supernatant was collected, centrifuged at 20,000 r/min at 4° C. for 45 minutes. Then the supernatant was discarded to obtain a cell membrane precipitation. Buffer was added to resuspend to measure the protein concentration, aliquoted, and stored at −80° C. The cell membranes of highly expressed human V1b and V2 receptors were purchased from Perkinelmer, USA.
(§2) The stock solution of the test compound and that of the positive control were diluted to 1 mM (10-fold dilution) and 0.1 mM (100-fold dilution) with DMSO, respectively, and then sequentially subjected to a four-fold dilution with DMSO to the tenth point.
(§3) Cell membranes overexpressing human receptors were prepared with assay buffer to 5 mg/mL.
(§4) • 1. 1 μL of the compound was aspirated from the dilution plate into each well of the 96-well assay plate (the concentration of the test compound in the reaction would be diluted 100-fold). To the control well was added 1 μL of DMSO. • 2. 10 mL of membrane solution containing 5 μg/μL was prepared. • 3. To the compound assay plate was added the membrane solution from step 2 with a pipette, and each well was added with 89 μL of the membrane solution. • 4. […] The configured test plate was placed at 30° C. and incubated for 60 minutes. • 6. The membrane complexes were collected into 0.5% PEI pre-coated GF/B plate with Cell Harvester, washed 3 times with 2 mL of pre-cooled elution buffer at 4° C., and dried at 37° C. for 2 hours. • 7.
(§5) Y=Bottom+(Top−Bottom)/(1+10^((X−Log IC50))), wherein: Y is the reading value of the liquid scintillation counter, and X is the logarithmic value of the compound concentration.

human V1bR = biological target: T3, human V1bR (Homo sapiens, UniProt P47901); experiment: Competitive isotope ligand binding, V1b receptor
T3 construct: purchased Perkinelmer, USA
T3 sequence (P47901 1-424): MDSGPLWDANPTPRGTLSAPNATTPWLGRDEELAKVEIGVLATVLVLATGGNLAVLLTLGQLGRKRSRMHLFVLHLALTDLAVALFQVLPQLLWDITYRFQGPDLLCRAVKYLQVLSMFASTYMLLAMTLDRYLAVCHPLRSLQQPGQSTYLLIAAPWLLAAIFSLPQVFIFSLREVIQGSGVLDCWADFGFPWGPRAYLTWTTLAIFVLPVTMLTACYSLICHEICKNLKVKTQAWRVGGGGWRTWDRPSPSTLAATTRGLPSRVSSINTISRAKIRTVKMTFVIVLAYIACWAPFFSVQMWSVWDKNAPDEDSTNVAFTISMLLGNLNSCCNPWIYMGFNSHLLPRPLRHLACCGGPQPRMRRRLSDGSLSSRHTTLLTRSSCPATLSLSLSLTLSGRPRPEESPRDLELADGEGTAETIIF
Experimental: as §1, §2, §3, §4, §5

human V2R = biological target: T4, human V2R (Homo sapiens, UniProt P30518); experiment: Competitive isotope ligand binding, V2 receptor
T4 construct: purchased Perkinelmer, USA
Experimental: as §1, §2, §3, §4, §5

[3] = read-out: Binding affinity V1bR, N = 2, isotope-labeled vasopressin […], experiment 2, bound printed in μM

T4 sequence (P30518 whole entry): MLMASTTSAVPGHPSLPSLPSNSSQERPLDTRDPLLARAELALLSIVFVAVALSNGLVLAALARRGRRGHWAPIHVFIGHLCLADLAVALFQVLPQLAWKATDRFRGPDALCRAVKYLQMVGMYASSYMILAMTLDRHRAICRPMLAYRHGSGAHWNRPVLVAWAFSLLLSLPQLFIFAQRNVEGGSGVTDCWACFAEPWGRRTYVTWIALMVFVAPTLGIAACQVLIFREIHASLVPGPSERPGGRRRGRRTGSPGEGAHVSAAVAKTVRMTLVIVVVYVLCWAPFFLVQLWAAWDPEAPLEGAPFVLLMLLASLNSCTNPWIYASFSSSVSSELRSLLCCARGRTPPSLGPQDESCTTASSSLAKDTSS
T1 sequence (P30518 whole entry): as above
T2 sequence (P37288 whole entry): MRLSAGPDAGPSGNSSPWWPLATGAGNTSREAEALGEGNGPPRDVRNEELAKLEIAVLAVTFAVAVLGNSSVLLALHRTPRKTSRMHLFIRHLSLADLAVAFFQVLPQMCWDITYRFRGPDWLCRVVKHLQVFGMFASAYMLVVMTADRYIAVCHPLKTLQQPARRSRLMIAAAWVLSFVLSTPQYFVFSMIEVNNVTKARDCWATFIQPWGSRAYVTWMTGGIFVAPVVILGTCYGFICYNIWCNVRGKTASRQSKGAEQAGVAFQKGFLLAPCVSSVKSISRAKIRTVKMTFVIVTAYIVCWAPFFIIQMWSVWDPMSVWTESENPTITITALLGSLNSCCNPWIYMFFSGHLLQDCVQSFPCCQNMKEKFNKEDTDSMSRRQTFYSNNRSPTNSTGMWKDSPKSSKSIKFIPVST

Cc1ccccc1C(=O)Nc1ccc(C(=O)N2CCC3CCOC3c3cc(Cl)ccc32)c(C)c1 (single isomer, unassigned) [Compound 4]
IC50 [1]: 7.45 nM

Cc1ccccc1C(=O)Nc1ccc(C(=O)N2CCC3CCOC3c3cc(Cl)ccc32)c(C)c1 (single isomer, unassigned) [Compound 5]
IC50 [1]: 61.6 nM

O=C(Nc1ccc(C(=O)N2CC[C@@H]3CCN[C@H]3c3cc(Cl)ccc32)cn1)c1ccccc1C(F)(F)F (single isomer, unassigned) [Compound 10A]
IC50 [1]: 31 nM
F [2]: 73.34%
AUC(0-inf) [2]: 2030 ng·h/mL
Cmax [2]: 833 ng/mL
half-life [2]: 4.44 h
Proliferation inhibition grading, Repeated experiment I (LLC-PK1 cells): +++
Proliferation inhibition grading, Repeated experiment II (LLC-PK1 cells): +++
Ki (human V1aR; Binding affinity V1aR, N = 1, isotope-labeled vasopressin […], experiment 1): 19.7 nM
Ki (human V1aR; Binding affinity V1aR, N = 2, isotope-labeled vasopressin […], experiment 2): 11.1 nM
Ki (human V1aR; isotope-labeled vasopressin […], mean ± spread, read-out: Binding affinity V1aR, mean of the two experiments): 15.4 ± 4.3 nM
IC50 (human V1bR): > 10000 nM
Ki (human V1bR): > 10 µM
Ki (human V1bR; isotope-labeled vasopressin […], bound given in μM, read-out: Binding affinity V1bR, summary of the two experiments): > 10 µM
Ki (human V1bR; [3]): > 10 µM
binding affinity for V2R compared with V1a (V1a/V2 selectivity) (human V2R): higher than that for V1a
Ki (human V2R; Binding affinity V2R, N = 1, isotope-labeled vasopressin 1 nM, experiment 1): 2.1 nM
Ki (human V2R; Binding affinity V2R, N = 2, isotope-labeled vasopressin 1 nM, experiment 2): 2.76 nM
Ki (human V2R; isotope-labeled vasopressin 1 nM, mean ± spread, read-out: Binding affinity V2R, mean of the two experiments): 2.4 ± 0.3 nM

Cc1ccccc1C(=O)Nc1ccc(C(=O)N2CCC3CCNC3c3cc(Cl)ccc32)c(C)c1 (stereo not drawn) [Compound 1]
IC50 [1]: 14.7 nM
dose-response compared with Tolvaptan (LLC-PK1 cells; AVP-induced LLC-PK1 cell proliferation): superior to that of Tolvaptan
hook effect in AVP-induced LLC-PK1 cell proliferation (LLC-PK1 cells): no hook effect

O=C(Nc1ccc(C(=O)N2CCC3CCNC3c3cc(Cl)ccc32)cn1)c1ccccc1C(F)(F)F (stereo not drawn) [Compound 2]
IC50 [1]: 32.6 nM

CN1CCC2CCN(C(=O)c3ccc(NC(=O)c4ccccc4C(F)(F)F)nc3)c3ccc(Cl)cc3[C@H]21 (stereo partly drawn) [Compound 3A]
IC50 [1]: 84.7 nM

Cc1ccccc1C(=O)Nc1ccc(C(=O)N2CCC3COC3c3cc(Cl)ccc32)c(C)c1 (stereo not drawn) [Compound 6]
IC50 [1]: 3.85 nM

Cc1cc(NC(=O)c2ccccc2Cl)ccc1C(=O)N1CCC2CNC2c2cc(Cl)ccc21 (stereo not drawn) [Compound 7]
IC50 [1]: 92.7 nM

O=C(Nc1ccc(C(=O)N2CCC3CCNC3c3cc(Cl)ccc32)cn1)c1ccccc1C(F)(F)F (stereo not drawn) [Compound 8]
IC50 [1]: 69.5 nM

Cc1ccccc1C(=O)Nc1ccc(C(=O)N2CCCC(O)c3cc(Cl)ccc32)c(C)c1 (stereo not drawn) [Reference substance 1, Tolvaptan, reference compound]
F [2]: 44%
AUC(0-inf) [2]: 1610 ng·h/mL
Cmax [2]: 1310 ng/mL
half-life [2]: 1.58 h
Proliferation inhibition grading, Repeated experiment I (LLC-PK1 cells): ++
Proliferation inhibition grading, Repeated experiment II (LLC-PK1 cells): ++
hook effect in AVP-induced LLC-PK1 cell proliferation (LLC-PK1 cells): high-concentration pro-proliferative hook effect
IC50 (human V1bR): > 10000 nM
Ki (human V1bR; read-out: Binding affinity V1bR, N = 1, isotope-labeled vasopressin […], experiment 1, bound printed in μM): > 10 µM
Ki (human V1bR; [3]): > 10 µM
Ki (human V1bR; read-out: Binding affinity V1bR, summary of the two experiments): > 10 µM
